≈ marks a conversion by molar mass, not a printed value.
Tests used:
[1] = Determining the solubility (saturated solution in McIlvaine buffer pH 7.4, UV spectroscopy); type: physicochemical; details: pH 7.4, aqueous buffer, thermodynamic from solid, shaken 2 hours, 0.75 mg solid in 0.75 ml
Summary of the method: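 Excess solid (0.75 mg per 0.75 ml) shaken 2 h in McIlvaine buffer pH 7.4, then filtered through 0.45 μm PTFE membrane with first drops discarded. Dissolved amount measured by UV spectroscopy.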

p38 MAP-kinase = p38 MAP-kinase (Homo sapiens, UniProt Q16539); assay: p38 MAP-kinase enzymatic assay (phosphorylation of GST-tagged ATF2, chemoluminescence); type: biochemical; details: inhibitor concentration 1 μM; activated p38 MAP-kinase 1 nM; ATP 100 μM; read-out: p38 (% Inh @ 1 μM)
Summary of the method: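 Activated p38 MAP-kinase (1 nM) preincubated 4 h at ambient temperature with 1 μM compound in HEPES pH 7, MgCl2, DTT, TWEEN20, then reacted 1 h with 10 nM GST-ATF2 and 100 μM ATP. Phospho-ATF2 detected by AlphaScreen-type bead luminescence; percent inhibition at 1 μM versus uninhibited and kinase-free controls.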

cytochrome P450 2C9 = cytochrome P450 2C9 (Homo sapiens, UniProt P11712); assay: Determining the cyp2C9 activity (O-demethylation of [O-methyl-14C]-naproxen); type: in vitro ADME; details: human recombinant cytochrome P450 2C9; 37° C.; <0.4 μM when inhibition >50% at lowest concentration; read-out: CYP 2C9 IC50
Summary of the method: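 Recombinant CYP2C9 (40 pmol/ml) with 80 μM [O-methyl-14C]-naproxen in 0.1 M Tris, 5 mM MgCl2; test compound at 50, 10, 2 and 0.4 μM in duplicate. Started with 1 mM NADPH, stopped after 15 min with TCA; 14C-formaldehyde separated by solid-phase extraction and counted by scintillation. IC50 from least-squares fit.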

Chain of cytochrome P450 2C9 (P11712 whole entry): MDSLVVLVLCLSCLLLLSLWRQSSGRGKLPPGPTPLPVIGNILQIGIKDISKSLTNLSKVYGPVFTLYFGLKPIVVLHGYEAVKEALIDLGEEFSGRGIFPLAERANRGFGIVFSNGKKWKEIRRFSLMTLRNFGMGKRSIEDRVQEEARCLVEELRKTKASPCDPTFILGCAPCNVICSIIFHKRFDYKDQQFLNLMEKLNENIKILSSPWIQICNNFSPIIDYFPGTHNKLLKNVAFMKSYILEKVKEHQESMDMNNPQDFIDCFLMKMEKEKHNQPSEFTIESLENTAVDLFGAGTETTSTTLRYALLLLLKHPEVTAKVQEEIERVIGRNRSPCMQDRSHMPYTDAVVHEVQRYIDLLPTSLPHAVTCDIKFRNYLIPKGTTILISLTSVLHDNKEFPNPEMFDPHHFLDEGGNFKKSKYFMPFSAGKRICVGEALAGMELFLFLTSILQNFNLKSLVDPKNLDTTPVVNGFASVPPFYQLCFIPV
Chain of p38 MAP-kinase (Q16539 whole entry): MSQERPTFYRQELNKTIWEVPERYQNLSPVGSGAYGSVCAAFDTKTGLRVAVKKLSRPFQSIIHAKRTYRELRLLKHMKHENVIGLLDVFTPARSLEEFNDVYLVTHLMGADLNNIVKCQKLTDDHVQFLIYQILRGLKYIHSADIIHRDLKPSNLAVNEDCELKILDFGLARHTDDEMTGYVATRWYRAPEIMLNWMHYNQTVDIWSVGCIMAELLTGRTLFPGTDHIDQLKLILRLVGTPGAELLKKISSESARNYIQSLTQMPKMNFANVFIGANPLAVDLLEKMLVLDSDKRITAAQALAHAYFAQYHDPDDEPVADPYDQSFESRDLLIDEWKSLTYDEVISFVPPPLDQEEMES

Row | SMILES | solubility at 2 h [1] [µg/mL] | inhibition at 1 µM (p38 MAP-kinase) [%] | IC50 (cytochrome P450 2C9) [nM]
1 | COc1c(NC(=O)c2cc3cccc(CN4CCN(C(=O)CN5CCCC5)CC4)c3n2C)cc(C(C)(C)C)cc1NS(C)(=O)=O [1(16), 1-methyl-7-[4-(2-pyrrolidin-1-yl-acetyl)-piperazin-1-ylmethyl]-1H-indole-2-carboxylic acid-(5-tert-butyl-3-methanesulphonylamino-2-methoxy-phenyl)-amide] | 620 (≈ 971 µM) | 98.4 | 20400
2 | COc1c(NC(=O)c2cc3cccc(CN4CCN(C(=O)[C@@H]5C[C@H](O)CN5C)CC4)c3n2C)cc(C(C)(C)C)cc1NS(C)(=O)=O [1(12), 7-[4-((2S,4S)-4-hydroxy-1-methyl-pyrrolidine-2-carbonyl)-piperazin-1-ylmethyl]-1-methyl-1H-indole-2-carboxylic acid(5-tert-butyl-3-methanesulphonylamino-2-methoxy-phenyl)-amide] | 140 (≈ 214 µM) | 98.9 | 1550
3 | COc1c(NC(=O)c2cc3cccc(CN4CCCN(C(=O)[C@H]5CCN(C)C5)CC4)c3n2C)cc(C(C)(C)C)cc1NS(C)(=O)=O [5(1), (S)-1-methyl-7-[4-(1-methyl-pyrrolidine-3-carbonyl)-[1,4]diazepan-1-ylmethyl]-1H-indole-2-carboxylic acid-(5-tert-butyl-3-methanesulphonylamino-2-methoxy-phenyl)-amide] | 170 (≈ 260 µM) | 94.9 | 2040
4 | COc1c(NC(=O)c2cc3cccc(CN4CCN(C(=O)[C@H]5C[C@H](O)CN5C)CC4)c3n2C)cc(C(C)(C)C)cc1NS(C)(=O)=O [1(11), 7-[4-((2R,4S)-4-hydroxy-1-methyl-pyrrolidine-2-carbonyl)-piperazin-1-ylmethyl]-1-methyl-1H-indole-2-carboxylic acid(5-tert-butyl-3-methanesulphonylamino-2-methoxy-phenyl)-amide] | 45 (≈ 68.7 µM) | 99.2 | 410
5 | COc1c(NC(=O)c2cc3cccc(CN4CCN(C(=O)[C@@H]5CCCN5C)CC4)c3n2C)cc(C(C)(C)C)cc1C(=O)NC(C)C [10(1), (S)-1-methyl-7-[4-(1-methyl-pyrrolidine-2-carbonyl)-piperazin-1-ylmethyl]-1H-indole-2-carboxylic acid-(5-tert-butyl-3-isopropylcarbamoyl-2-methoxy-phenyl)-amide] | 380 (≈ 602 µM) | 99.1 | 1290
6 | COc1c(NC(=O)c2cc3cccc(CN4CCN(C(=O)CN5CC[C@@H](O)C5)CC4)c3n2C)cc(C(C)(C)C)cc1NS(C)(=O)=O [6(1), (R)-7-{4-[2-(3-hydroxy-pyrrolidin-1-yl)-acetyl]-piperazin-1-ylmethyl}-1-methyl-1H-indole-2-carboxylic acid-(5-tert-butyl-3-methanesulphonylamino-2-methoxy-phenyl)-amide] | 47 (≈ 71.8 µM) | 99.2 | 470
7 | COc1c(NC(=O)c2cc3cccc(CN4CCCN(C(=O)[C@@H]5CCN(C)C5)CC4)c3n2C)cc(C(C)(C)C)cc1NS(C)(=O)=O [5(2), (R)-1-methyl-7-[4-(1-methyl-pyrrolidine-3-carbonyl)-[1,4]diazepan-1-ylmethyl]-1H-indole-2-carboxylic acid-(5-tert-butyl-3-methanesulphonylamino-2-methoxy-phenyl)-amide] | 160 (≈ 245 µM) | 98 | 990
8 | COc1c(NC(=O)c2cc3cccc(CN4CCCN(C(=O)[C@H]5CCCN5C)CC4)c3n2C)cc(C(C)(C)C)cc1NS(C)(=O)=O [1(21), 1-methyl-7-[4-((2R)-1-methyl-pyrrolidine-2-carbonyl)-[1,4]diazepan-1-ylmethyl]-1H-indole-2-carboxylic acid-(5-tert-butyl-3-methanesulphonylamino-2-methoxy-phenyl)-amide] | 45 (≈ 68.9 µM) | 98.9 | 4020
9 | COc1c(NC(=O)c2cc3cccc(CN4CCN(C(=O)C5CN(C)C5)CC4)c3n2C)cc(C(C)(C)C)cc1NS(C)(=O)=O [1(2), 1-methyl-7-[4-(1-methyl-azetidine-3-carbonyl)-piperazin-1-ylmethyl]-1H-indole-2-carboxylic acid(5-tert-butyl-3-methanesulphonylamino-2-methoxy-phenyl)-amide] | 59 (≈ 94.4 µM) | 98.5 | 1340

More lines, now with the values ahead:

Row | solubility at 2 h [1] [µg/mL] | inhibition at 1 µM (p38 MAP-kinase) [%] | IC50 (cytochrome P450 2C9) [nM] | SMILES
10 | 97 (≈ 149 µM) | 97.9 | 5270 | COc1c(NC(=O)c2cc3cccc(CN4CCN(C(=O)[C@@H]5CCCN5C)CC4)c3n2C)cc(C(F)(F)F)cc1NS(C)(=O)=O [14(1), (S)-1-methyl-7-[4-(1-methyl-pyrrolidine-2-carbonyl)-piperazin-1-ylmethyl]-1H-indole-2-carboxylic acid-(3-methanesulphonylamino-2-methoxy-5-trifluoromethyl-phenyl)-amide]
11 | 110 (≈ 168 µM) | 98.7 | 5320 | COc1c(NC(=O)c2cc3cccc(CN4CCN(C(=O)CN5CCNCC5)CC4)c3n2C)cc(C(C)(C)C)cc1NS(C)(=O)=O [Example 7, 1-methyl-7-[4-(2-piperazin-1-yl-acetyl)-piperazin-1-ylmethyl]-1H-indole-2-carboxylic acid-(5-tert-butyl-3-methanesulphonylamino-2-methoxy-phenyl)-amide]
12 | 53 (≈ 83.1 µM) | 99.6 | 2340 | COc1c(CS(C)(=O)=O)cc(C(C)(C)C)cc1NC(=O)c1cc2cccc(CN3CCN(C(=O)[C@@H]4CCCN4C)CC3)c2n1C [11(5), (S)-1-methyl-7-[4-(1-methyl-pyrrolidine-2-carbonyl)-piperazin-1-ylmethyl]-1H-indole-2-carboxylic acid-(5-tert-butyl-3-methanesulphonylmethyl-2-methoxy-phenyl)-amide]
13 | > 1000 | 18 | 10400 | COc1c(NC(=O)c2cc3cccc(CN4CCN(C(=O)[C@@H]5CCCN5C)CC4)c3n2C)cc(C(C)C)cc1NS(C)(=O)=O [11(2), (S)-1-methyl-7-[4-(1-methyl-pyrrolidine-2-carbonyl)-piperazin-1-ylmethyl]-1H-indole-2-carboxylic acid-(5-isopropyl-3-methanesulphonylamino-2-methoxy-phenyl)-amide]
14 | 280 (≈ 429 µM) | 97.3 | 1670 | COc1c(NC(=O)c2cc3cccc(CN4CCCN(C(=O)[C@@H]5CCCN5C)CC4)c3n2C)cc(C(C)(C)C)cc1NS(C)(=O)=O [Example 8, 1-methyl-7-[4-((2S)-1-methyl-pyrrolidine-2-carbonyl)-[1,4]diazepan-1-ylmethyl]-1H-indole-2-carboxylic acid-(5-tert-butyl-3-methanesulphonylamino-2-methoxy-phenyl)-amide]
15 | 12 (≈ 18 µM) | 99.3 | 670 | COc1c(NC(=O)c2cc3cccc(CN4CCN(C(=O)[C@@H]5CCCN5C)CC4)c3n2C)cc(C(C)(C)C)cc1NS(=O)(=O)C1CC1 [13(1), (S)-1-methyl-7-[4-(1-methyl-pyrrolidine-2-carbonyl)-piperazin-1-ylmethyl]-1H-indole-2-carboxylic acid-(5-tert-butyl-3-cyclopropanesulphonylamino-2-methoxy-phenyl)-amide]
16 | 17 (≈ 25.5 µM) | 99.1 | 500 | CCCS(=O)(=O)Nc1cc(C(C)(C)C)cc(NC(=O)c2cc3cccc(CN4CCN(C(=O)[C@@H]5CCCN5C)CC4)c3n2C)c1OC [Example 13, (S)-1-methyl-7-[4-(1-methyl-pyrrolidine-2-carbonyl)-piperazin-1-ylmethyl]-1H-indole-2-carboxylic acid-[5-tert-butyl-2-methoxy-3-(propane-1-sulphonylamino)-phenyl]-amide]

From US8686022B2, “7-(piperazine-1-ymethyl)-1H-indole-2-carboxylic acid (phenyl)-amide derivatives and allied compounds as p38 MAP kinase inhibitors for the treatment of respiratory diseases” (Boehringer Ingelheim International GmbH, priority 2008, dated 2014)
